For the assay, the system named is P388 leukemia ip, CD2F1 mice, survival T/C. As to the kind of experiment: NCI In Vivo Anticancer Drug Screen. Data for tumor model P388 Leukemia (intraperitoneal) in CD2F1 (CDF1) mice. The following applies: endpoint: median survival time, higher = longer survival. The procedure, abridged:
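Mice carrying the transplanted tumor received test compound or vehicle. Survival was recorded in each group, and the value is the treated-group measurement divided by that of the vehicle-treated control group.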

Setting [1] is: dose: 50.0 mg/kg/injection, schedule: Q01DX009 (ip), vehicle: Klucel (hydroxypropylcellulose) (HPC).
[2] abbreviates: dose: 50.0 mg/kg/injection, schedule: Q01DX005 (ip), vehicle: saline with Tween-80.
Where [3] appears, read: dose: 100.0 mg/kg/injection, schedule: Q01DX005 (ip), vehicle: saline with Tween-80.
[4] abbreviates: dose: 200.0 mg/kg/injection, schedule: Q01DX005 (ip), vehicle: saline with Tween-80.
Where [5] appears, read: dose: 60.0 mg/kg/injection, schedule: Q01DX005 (ip), vehicle: saline with Tween-80.
Where [6] appears, read: dose: 120.0 mg/kg/injection, schedule: Q01DX005 (ip), vehicle: saline with Tween-80.
The mark [7] stands for this setting: dose: 25.0 mg/kg/injection, schedule: Q01DX009 (ip), vehicle: saline with Tween-80.
The mark [8] stands for this setting: dose: 50.0 mg/kg/injection, schedule: Q01DX009 (ip), vehicle: saline with Tween-80.
The mark [9] stands for this setting: dose: 100.0 mg/kg/injection, schedule: Q01DX009 (ip), vehicle: Klucel (hydroxypropylcellulose) (HPC).
The mark [10] stands for this setting: dose: 6.25 mg/kg/injection, schedule: Q01DX009 (ip), vehicle: saline with Tween-80.

Structures are written as SMILES. Several values for one entry are separate records, joined by “and”; a condition that tells them apart may be missing. Equal entries are not always repeated. Toxic doses and inconclusive results are not listed.

With `CC(C)(NC(=O)OCc1ccccc1)C(=O)n1cc(CC(C(=O)OCc2ccccc2)n2cnc3ccccc3c2=O)c2ccccc21` (stereo not drawn), the T/C reads like this: (dose: 8.75 mg/kg/injection, schedule: Q01DX005 (ip), vehicle: Klucel (hydroxypropylcellulose) (HPC)) 96 % of control; (dose: 17.5 mg/kg/injection, schedule: Q01DX005 (ip), vehicle: Klucel (hydroxypropylcellulose) (HPC)) 100 % of control; (dose: 35.0 mg/kg/injection, schedule: Q01DX005 (ip), vehicle: Klucel (hydroxypropylcellulose) (HPC)) 99 % of control.
For `O=P1(N(CCCl)CCCl)Nc2cccc3cccc(c23)N1`, the T/C is 110 % of control and 111 % of control (dose: 6.25 mg/kg/injection, schedule: Q01DX009 (ip), vehicle: Klucel (hydroxypropylcellulose) (HPC)); 103 % of control and 114 % of control (dose: 12.5 mg/kg/injection, schedule: Q01DX009 (ip), vehicle: Klucel (hydroxypropylcellulose) (HPC)); 102 % of control and 119 % of control (dose: 25.0 mg/kg/injection, schedule: Q01DX009 (ip), vehicle: Klucel (hydroxypropylcellulose) (HPC)); 120 % of control under setting [1].
For the molecule `CC(=O)NCCc1ccc(OC(C)=O)c(OC(C)=O)c1`, the T/C under setting [2] is 99 % of control, the T/C under setting [3] was 103 % of control and the T/C under setting [4] is 107 % of control.
For the molecule `N#Cc1c(-c2ccccc2)c(-c2ccccc2)nn(CCO)c1=O`, the T/C runs as follows: (dose: 25.0 mg/kg/injection, schedule: Q04DX002 (ip), vehicle: distilled water + Tween-80) 94 % of control; (dose: 50.0 mg/kg/injection, schedule: Q04DX002 (ip), vehicle: distilled water + Tween-80) 103 % of control; (dose: 100.0 mg/kg/injection, schedule: Q04DX002 (ip), vehicle: distilled water + Tween-80) 108 % of control; (dose: 200.0 mg/kg/injection, schedule: Q04DX002 (ip), vehicle: distilled water + Tween-80) 110 % of control.
Turning to `CC(C)NCC(O)COc1ccc(CCOC(=O)CCc2ccc(C(O)(C(F)(F)F)C(F)(F)F)cc2)cc1` (stereo not drawn), the T/C is 98 % of control (dose: 30.0 mg/kg/injection, schedule: Q01DX005 (ip), vehicle: saline with Tween-80); 96 % of control under setting [5]; 102 % of control under setting [6].
Consider `NC(=S)N/N=C/c1ccc(OC(=O)COc2ccccc2)cn1`, for which the T/C is 171 % of control under setting [7]; 205 % of control under setting [8]; 205 % of control (dose: 100.0 mg/kg/injection, schedule: Q01DX009 (ip), vehicle: saline with Tween-80).
Take `Cc1cc(C)nc(NS(=O)(=O)c2ccc(NC(=O)c3cccnc3Nc3cccc(Cl)c3)cc2)n1`: the T/C is, setting by setting: under setting [5], 105 % of control; under setting [6], 115 % of control; (dose: 240.0 mg/kg/injection, schedule: Q01DX005 (ip), vehicle: saline with Tween-80) 112 % of control.
As for `O=C(NC(=O)c1ccccc1F)Nc1ccc(C(O)(C(F)(F)F)C(F)(F)F)cc1`, the T/C runs as follows: under setting [2], 104 % of control; under setting [3], 98 % of control; under setting [4], 100 % of control.
As for `COC(=O)c1cc(=O)nc(N/N=C/c2ccc3c(c2)OCO3)s1`, the T/C (dose: 12.5 mg/kg/injection, schedule: Q01DX005 (ip), vehicle: saline with Tween-80) was 99 % of control; the T/C (dose: 25.0 mg/kg/injection, schedule: Q01DX005 (ip), vehicle: saline with Tween-80) is 94 % of control; the T/C under setting [2] was 94 % of control.
In the case of `ClCCN(CCN(CCCl)c1ccc2ccccc2c1)c1ccc2ccccc2c1`, the T/C was 109 % of control under setting [1]; 112 % of control under setting [9]; 107 % of control (dose: 200.0 mg/kg/injection, schedule: Q01DX009 (ip), vehicle: Klucel (hydroxypropylcellulose) (HPC)).
Regarding `Nc1ncnc2c1nnn2CC(O)CO` (stereo not drawn), the T/C is, setting by setting: (dose: 60.0 mg/kg/injection, schedule: Q01DX005 (ip), vehicle: Klucel (hydroxypropylcellulose) (HPC)) 99 % of control; (dose: 120.0 mg/kg/injection, schedule: Q01DX005 (ip), vehicle: Klucel (hydroxypropylcellulose) (HPC)) 92 % of control.
In the case of `CC(=N\O)/C(C)=N/O.CC(=N\O)/C(C)=N/O.[Cl][Rh][Cl]`, the T/C runs as follows: (dose: 200.0 mg/kg/injection, schedule: Q04DX003 (ip), vehicle: saline) 100 % of control; (dose: 400.0 mg/kg/injection, schedule: Q04DX003 (ip), vehicle: saline) 95 % of control.
As for `C[N+](C)=c1ccc2nc3ccc(N)cc3sc-2c1`, the T/C (dose: 3.13 mg/kg/injection, schedule: Q01DX009 (ip), vehicle: saline) was 106 % of control; the T/C under setting [10] is 87 % of control; the T/C (dose: 6.25 mg/kg/injection, schedule: Q01DX009 (ip), vehicle: saline) was 94 % of control; the T/C (dose: 12.5 mg/kg/injection, schedule: Q01DX009 (ip), vehicle: saline) is 95 % of control; the T/C under setting [7] is 102 % of control and 103 % of control; the T/C (dose: 25.0 mg/kg/injection, schedule: Q01DX009 (ip), vehicle: saline) was 107 % of control. Moreover, the T/C is, setting by setting: under setting [8], 95 % of control; (dose: 50.0 mg/kg/injection, schedule: Q01DX009 (ip), vehicle: saline) 104 % of control.
With `Cc1cc([N+](=O)[O-])c([N+](=O)[O-])cc1Cl`, the T/C (dose: 50.0 mg/kg/injection, schedule: Q01DX001 (ip), vehicle: other) is 100 % of control; the T/C (dose: 100.0 mg/kg/injection, schedule: Q01DX001 (ip), vehicle: other) is 100 % of control; the T/C (dose: 200.0 mg/kg/injection, schedule: Q01DX001 (ip), vehicle: other) is 105 % of control.
As for `c1ccc2c(NCC3CCNCC3)c3ccccc3nc2c1`, the T/C is 124 % of control (dose: 25.0 mg/kg/injection, schedule: Q04DX002 (ip), vehicle: saline with Tween-80) and 112 % of control (dose: 50.0 mg/kg/injection, schedule: Q04DX002 (ip), vehicle: saline with Tween-80).
Take `CN(C)CCCN1c2ccc(O)cc2Sc2ccc(Cl)cc21`: the T/C reads like this: (dose: 25.0 mg/kg/injection, schedule: Q04DX003 (ip), vehicle: saline with Tween-80) 100 % of control; (dose: 50.0 mg/kg/injection, schedule: Q04DX003 (ip), vehicle: saline with Tween-80) 95 % of control; (dose: 100.0 mg/kg/injection, schedule: Q04DX003 (ip), vehicle: saline with Tween-80) 95 % of control.
Turning to `COCCOC(C)C(/C=N/N=C(N)N)=N/N=C(N)N` (stereo not drawn), the T/C runs as follows: (dose: 12.5 mg/kg/injection, schedule: Q01DX005 (ip), vehicle: saline) 101 % of control; (dose: 25.0 mg/kg/injection, schedule: Q01DX005 (ip), vehicle: saline) 103 % of control; (dose: 50.0 mg/kg/injection, schedule: Q01DX005 (ip), vehicle: saline) 99 % of control and 101 % of control.
Turning to `C=CC(=NC(C)(C)C)Nc1ccccc1C#N`, the T/C is, setting by setting: (dose: 3.12 mg/kg/injection, schedule: Q01DX009 (ip), vehicle: saline with Tween-80) 106 % of control; under setting [10], 106 % of control; (dose: 12.5 mg/kg/injection, schedule: Q01DX009 (ip), vehicle: saline with Tween-80) 100 % of control and 117 % of control.
`O=C(NN1C(=O)C=C(O)/C1=C\c1ccccc1)c1ccccc1`: the T/C reads like this: (dose: 25.0 mg/kg/injection, schedule: Q01DX005 (ip), vehicle: Klucel (hydroxypropylcellulose) (HPC)) 99 % of control and 104 % of control; (dose: 50.0 mg/kg/injection, schedule: Q01DX005 (ip), vehicle: Klucel (hydroxypropylcellulose) (HPC)) 101 % of control and 104 % of control and 111 % of control; (dose: 100.0 mg/kg/injection, schedule: Q01DX005 (ip), vehicle: Klucel (hydroxypropylcellulose) (HPC)) 103 % of control and 105 % of control (2×); (dose: 200.0 mg/kg/injection, schedule: Q01DX005 (ip), vehicle: Klucel (hydroxypropylcellulose) (HPC)) 100 % of control and 105 % of control and 121 % of control.
In the case of `CCOC(=O)C(CC)Oc1ccc(Cl)cc1` (stereo not drawn), the T/C reads like this: under setting [1], 102 % of control; under setting [9], 89 % of control.
As for `CN(C)C1C(O)C2Oc3c(cc(O)c4c3C(=O)c3cc5c(c(O)c3C4=O)C(OCCBr)CC(C)(O)C5)C(C)(O2)C1O` (stereo not drawn), the T/C was 150 % of control (dose: 2.0 mg/kg/injection, schedule: Q01DX009 (ip), vehicle: other); 154 % of control (dose: 4.0 mg/kg/injection, schedule: Q01DX009 (ip), vehicle: other); 157 % of control (dose: 8.0 mg/kg/injection, schedule: Q01DX009 (ip), vehicle: other); 159 % of control (dose: 16.0 mg/kg/injection, schedule: Q01DX009 (ip), vehicle: other).

The values above are taken from PubChem BioAssay AID330 (DTP/NCI, 2004).
